Data published in patent US5382586A, “Aryl (or heteroaryl)piperazinylalkylazole derivatives, their preparation and their application as medicaments” (priority 1991, dated 1995).

Columns and labels:
[1] = system: conditioned avoidance response in male Wistar rats; assay: conditioned avoidance response test (inhibition of the conditioned avoidance response; anxiolytic/tranquillising activity); format: in vivo, rat (male Wistar); conditions: rat; for Activity % (inhibition of the conditioned avoidance response): D = 80 mg/kg, p.o., 45 min before test; for ED50: po, 0.75 h
Method: Male Wistar rats weighing 200 grammes which have been trained to jump over a barrier in an avoidance and escape cage (shuttle box) (Letica, reference LI 910 and LI 2700) within 30 seconds of their being introduced into the cage are used in this test.
The products having an anxiolytic or tranquillising activity suppress the conditioned avoidance response.
Training: day one: 11 trials at 3 minute intervals. Electric shock to the paws after 30 seconds (5 mA, 0.1 s, 10 s).
Days two and three: 2 trials per day, with the selected rats only [sum of the scores for the first day (with the exception of the first trial)>14].
Test day: groups formed by selected rats. Oral administration of the product or the vehicle 45 minutes before the start of the study.

[2] = system: mice, abstinence syndrome induced by cocaine, diazepam, alcohol or nicotine; assay: light box/dark box test: inhibition of the abstinence syndrome; format: in vivo, mouse; parameters: Time in box, dark (D) / Latent period L-D: unit not given here
Method: The light box/dark box test described by B. Costall et al. (J. Phar. Pharmacol., 1988, 40: 494-500) is used. The mouse is placed in the light zone of a box divided into two compartments, one brightly illuminated, the light box, and the other with little illumination, the dark box.
1) The number of times the mouse stands up on the hind paws in each compartment during a 5 minute period is counted (see Column 1 of Table V).
2) The activity in each compartment is given by counting the number of crossings through the squares which form the divisions of each compartment (see Column 2 of Table V).
3) The time passed in the dark box during the 5 minute counting period is determined (see Column 3 of Table 5).
4) The initial latent period is determined, that is to say the time which elapses after the animal is placed in the light box, at the start of the test, before it enters the dark box (see Column 4 of Table 5).
1) Dependency on a given treatment (diazepam, cocaine, alcohol or nicotine) employing daily administration over a period of 7 or 14 days.
Diazepam: 10 mg/kg i.p. twice per day over a period of 7 days.
Cocaine: 1 mg/kg i.p. over a period of 14 days.
Alcohol: Administered at 8% weight/volume in the drinking water over a period of 14 days. Nicotine: 0.1 mg/kg i.p. twice per day over a period of 7 days.
3) Other different groups receive, in addition to diazepam, cocaine, alcohol or nicotine, a concomitant treatment with products which are the subject of the present invention and, by way of comparison, with buspirone or ipsapirone.
The product described and the doses tested were: 4,5-dichloro-2-methyl-1-{4-[4-(2-pyrimidinyl)-1-piperazinyl]-butyl}-1H-imidazole citrate.
1 μg/kg p.o. twice per day.

[3] = system: norepinephrine-induced death in rats; assay: norepinephrine antagonism test in rats (antihypertensive activity); format: in vivo, rat (male Wister); conditions: for Activity % (norepinephrine antagonistic antihypertensive activity): D = 40 mg/kg, i.p., rat, norepinephrine 1.25 mg/kg i.v. after 2 hours; for ED50: Rattus norvegicus, ip, 2 h, read-out: ED50 (norepinephrine antagonistic antihypertensive activity)
Method: This activity is manifested by the protection of animals before death induced by an intravenous injection of norepinephrine, which produces a hypertensive attack in rats.
Male Wister rats weighing 200 grammes are used in this test. The product to be studied is administered intraperitoneally and 1.25 mg/kg (i.v.) of norepinephrine are administered after 2 hours.
The initial administration dose in these studies is 40 mg/kg (i.p.).

[4] = 24 h after stopping alcohol (alone, or with the named product; Ex. 42 at 1 μg/kg p.o. twice per day)
[5] = 24 h after stopping cocaine (alone, or with the named product; Ex. 42 at 1 μg/kg p.o. twice per day)
[6] = 24 h after stopping diazepam (alone, or with the named product; Ex. 42 at 1 μg/kg p.o. twice per day)
[7] = 24 h after stopping nicotine (alone, or with the named product; Ex. 42 at 1 μg/kg p.o. twice per day)

## O=C1CC2(CCCC2)CC(=O)N1CCCCN1CCN(c2ncccn2)CC1 [Buspirone]
[1]
  Activity % (inhibition of the conditioned avoidance response): 99%
[2]; [4]
  Activity within 5 min period, dark box (D): 75
  Activity within 5 min period, light box (L): 15
  Latent period L-D: 7
  Number of times standing erect within 5 min. period, dark box (D): 80
  Number of times standing erect within 5 min. period, light box (L): 18
  Time in box, dark (D): 62
[2]; [5]
  Activity within 5 min period, dark box (D): 90
  Activity within 5 min period, light box (L): 18
  Latent period L-D: 2
  Number of times standing erect within 5 min. period, dark box (D): 98
  Number of times standing erect within 5 min. period, light box (L): 10
  Time in box, dark (D): 70
[2]; [6]
  Activity within 5 min period, dark box (D): 100
  Activity within 5 min period, light box (L): 12
  Latent period L-D: 2
  Number of times standing erect within 5 min. period, dark box (D): 88
  Number of times standing erect within 5 min. period, light box (L): 9
  Time in box, dark (D): 72
[2]; [7]
  Activity within 5 min period, dark box (D): 85
  Activity within 5 min period, light box (L): 20
  Latent period L-D: 8
  Number of times standing erect within 5 min. period, dark box (D): 80
  Number of times standing erect within 5 min. period, light box (L): 12
  Time in box, dark (D): 65
[2]; induced by diazepam and cocaine
  abstinence syndrome: maintains the abstinence syndrome
[2]; treatment with alcohol and nicotine stopped
  abstinence syndrome: an abstinence syndrome, i.e. anxiogenesis, no longer exists
[2]; treatment with alcohol stopped
  inhibition of anxiogenic response parameters: significantly inhibits only a few anxiogenic response parameters

## Clc1cccc(Cl)c1N=C1NCCN1 [Clonidine, reference compound]
[3]
  Activity % (norepinephrine antagonistic antihypertensive activity): 100%
  ED50: 1.58 mg/kg

## c1cnc(N2CCN(CCCCn3cccc3)CC2)nc1 [Example 1, 1-{4-[4-(2-pyrimidinyl)-1-piperazinyl]-butyl}pyrrole]
[1]
  Activity % (inhibition of the conditioned avoidance response): 94%
  ED50: 32.4 mg/kg
[3]
  Activity % (norepinephrine antagonistic antihypertensive activity): 0%

## c1cnc(N2CCN(CCCCn3c4ccccc4c4ccccc43)CC2)nc1 [Example 2]
[1]
  Activity % (inhibition of the conditioned avoidance response): 37%
[3]
  Activity % (norepinephrine antagonistic antihypertensive activity): 0%

## c1cnc(N2CCN(CCCCn3ccc4ccccc43)CC2)nc1 [Example 3]
[1]
  Activity % (inhibition of the conditioned avoidance response): 74%
  ED50: 42.8 mg/kg
[3]
  Activity % (norepinephrine antagonistic antihypertensive activity): 25%

## c1ccc(-c2c(-c3ccccc3)n(CCCCN3CCN(c4ncccn4)CC3)c3ccccc23)cc1 [Example 4]
[1]
  Activity % (inhibition of the conditioned avoidance response): 30%
[3]
  Activity % (norepinephrine antagonistic antihypertensive activity): 0%

## NC(=O)c1cnn(CCCCN2CCN(c3ncccn3)CC2)c1 [Example 5, 4-carboxamido-1-{4-[4-(2-pyrimidinyl)-1-piperazinyl]-butyl}-1H-pyrazole]
[1]
  Activity % (inhibition of the conditioned avoidance response): 68%
  ED50: 33.5 mg/kg
[3]
  Activity % (norepinephrine antagonistic antihypertensive activity): 0%

## O=C(O)c1cnn(CCCCN2CCN(c3ncccn3)CC2)c1 [Example 6, 4-carboxy-1-{4-[4-(2-pyrimidinyl)-1-piperazinyl]-butyl}-1H-pyrazole]
[1]
  Activity % (inhibition of the conditioned avoidance response): 57%
  ED50: 44.3 mg/kg
[3]
  Activity % (norepinephrine antagonistic antihypertensive activity): 75%
  ED50: 31.7 mg/kg

## Cc1cc(C(F)(F)F)n(CCCCN2CCN(c3ncccn3)CC2)n1 [Example 7]
[1]
  Activity % (inhibition of the conditioned avoidance response): 74%
  ED50: 29 mg/kg
[3]
  Activity % (norepinephrine antagonistic antihypertensive activity): 0%

## c1ccc(-c2ncn(CCCCN3CCN(c4ncccn4)CC3)c2-c2ccccc2)cc1 [Example 8]
[1]
  Activity % (inhibition of the conditioned avoidance response): 29%
[3]
  Activity % (norepinephrine antagonistic antihypertensive activity): 0%

## c1ccc(-c2nc(-c3ccccc3)n(CCCCN3CCN(c4ncccn4)CC3)c2-c2ccccc2)cc1 [Example 9]
[1]
  Activity % (inhibition of the conditioned avoidance response): 8%
[3]
  Activity % (norepinephrine antagonistic antihypertensive activity): 0%

## Cc1nc(-c2ccccc2)c(-c2ccccc2)n1CCCCN1CCN(c2ncccn2)CC1 [Example 10]
[1]
  Activity % (inhibition of the conditioned avoidance response): 38%
[3]
  Activity % (norepinephrine antagonistic antihypertensive activity): 0%

## Cc1nc(Cl)c(Cl)n1CCCCN1CCN(c2ncccn2)CC1 [Example 11, 4,5-dichloro-2-methyl-1-{4-[4-(2-pyrimidinyl)-1-piperazinyl]-butyl}-1H-imidazole]
[1]
  Activity % (inhibition of the conditioned avoidance response): 82%
[3]
  Activity % (norepinephrine antagonistic antihypertensive activity): 0%

## CCc1nccn1CCCCN1CCN(c2ncccn2)CC1 [Example 12]
[1]
  Activity % (inhibition of the conditioned avoidance response): 46%
[3]
  Activity % (norepinephrine antagonistic antihypertensive activity): 0%

## c1ccc(-c2nccn2CCCCN2CCN(c3ncccn3)CC2)cc1 [Example 13]
[1]
  Activity % (inhibition of the conditioned avoidance response): 70%
  ED50: 17.1 mg/kg
[3]
  Activity % (norepinephrine antagonistic antihypertensive activity): 0%

## COC(=O)c1cn(CCCCN2CCN(c3ncccn3)CC2)cn1 [Example 14]
[1]
  Activity % (inhibition of the conditioned avoidance response): 38%
[3]
  Activity % (norepinephrine antagonistic antihypertensive activity): 0%

## c1ccc(-c2cn(CCCCN3CCN(c4ncccn4)CC3)cn2)cc1 [Example 15]
[1]
  Activity % (inhibition of the conditioned avoidance response): 73%
  ED50: 28 mg/kg
[3]
  Activity % (norepinephrine antagonistic antihypertensive activity): 0%

## c1cnc(N2CCN(CCCCn3cnc4ccccc43)CC2)nc1 [Example 16, 1-{4-[4-(2-pyrimidinyl)-1-piperazinyl]-butyl}-1H-benzimidazole]
[1]
  Activity % (inhibition of the conditioned avoidance response): 100%
  ED50: 6.1 mg/kg
[3]
  Activity % (norepinephrine antagonistic antihypertensive activity): 0%

## c1cnc(N2CCN(CCCCn3cnc4cccnc43)CC2)nc1 [Example 17, 1-{4-[-4-(2-pyrimidinyl)-1-piperazinyl]-butyl}-3H-imidazo[5,4-b]pyridine]
[1]
  Activity % (inhibition of the conditioned avoidance response): 86%
  ED50: 21.9 mg/kg
[3]
  Activity % (norepinephrine antagonistic antihypertensive activity): 0%

## c1cnc(N2CCN(CCCCn3cnc4ncccc43)CC2)nc1 [Example 18, 1-{4-[4-(2-pyrimidinyl)-1-piperazinyl]-butyl}-1H-imidazo[4,5-b]pyridine]
[1]
  Activity % (inhibition of the conditioned avoidance response): 91%
  ED50: 25.6 mg/kg
[3]
  Activity % (norepinephrine antagonistic antihypertensive activity): 100%
  ED50: 3.97 mg/kg

## c1cnc(N2CCN(CCCCn3nnc4ccccc43)CC2)nc1 [Example 19]
[1]
  Activity % (inhibition of the conditioned avoidance response): 99%
[3]
  Activity % (norepinephrine antagonistic antihypertensive activity): 0%

## Clc1nc2ccccc2n1CCCCN1CCN(c2ncccn2)CC1 [Example 20]
[1]
  Activity % (inhibition of the conditioned avoidance response): 77%
  ED50: 15.4 mg/kg
[3]
  Activity % (norepinephrine antagonistic antihypertensive activity): 0%

## O=C1c2ccccc2S(=O)(=O)N1CCCCN1CCN(c2ncccn2)CC1 [Ipsapirone]
[1]
  Activity % (inhibition of the conditioned avoidance response): 98%
[2]; [4]
  Activity within 5 min period, dark box (D): 80
  Activity within 5 min period, light box (L): 36
  Latent period L-D: 10
  Number of times standing erect within 5 min. period, dark box (D): 75
  Number of times standing erect within 5 min. period, light box (L): 21
  Time in box, dark (D): 35
[2]; [5]
  Activity within 5 min period, dark box (D): 85
  Activity within 5 min period, light box (L): 18
  Latent period L-D: 8
  Number of times standing erect within 5 min. period, dark box (D): 89
  Number of times standing erect within 5 min. period, light box (L): 11
  Time in box, dark (D): 62
[2]; [6]
  Activity within 5 min period, dark box (D): 88
  Activity within 5 min period, light box (L): 17
  Latent period L-D: 8
  Number of times standing erect within 5 min. period, dark box (D): 82
  Number of times standing erect within 5 min. period, light box (L): 15
  Time in box, dark (D): 90
[2]; [7]
  Activity within 5 min period, dark box (D): 98
  Activity within 5 min period, light box (L): 18
  Latent period L-D: 3
  Number of times standing erect within 5 min. period, dark box (D): 84
  Number of times standing erect within 5 min. period, light box (L): 9
  Time in box, dark (D): 70
[2]; induced by alcohol
  abstinence syndrome: inhibits the abstinence syndrome
[2]; induced by diazepam, cocaine and nicotine
  abstinence syndrome: maintains the abstinence syndrome

## c1ccc(CC2=NCCN2)cc1 [Tolazoline, reference compound]
[3]
  Activity % (norepinephrine antagonistic antihypertensive activity): 100%
  ED50: 2.97 mg/kg
